The target in test [1] is T1, kynurenin-3-hydroxylase (Rattus norvegicus, UniProt O88867).
T1 construct: The enzyme source is a crude rat kidney mitochondrial preparation; from tissue; host or cells: rat kidney, crude mitochondrial preparation
Put plainly: ex vivo kynurenin-3-hydroxylase inhibition in the liver after oral administration to rats. The conditions noted are these: 2 hours; for ED50: po. How it is done: (§1) Determination of kynurenin-3-hydroxylase in vitro and ex vivo
(§2) The kynurenin-3-hydroxylase inhibiting activity of the compounds in accordance with the invention can be determined in vitro and ex vivo using standard methods. The preparations to be tested were examined in the tests described hereinafter, which are based on the methods published by J. B. Erickson, E. M. Flanagan, S. Russo and J. F. Reinhard [Anal. Biochem. 1992, 205: 257-262].
The substances to be tested are administered orally to male rats of 100-140 g body weight in a dosage of 30 μmol/kg. The kidneys and a part of the liver are removed from the animals, which are decapitated after 2 hours, and frozen at -80° C. until used. In order to measure the enzyme activity, the organs are homogenized in the ratio 1:10 (weight/volume) in sucrose, containing TRIS/HCl, pH 7.4 and PMSF.
(§3) Measurement of the enzyme activity
(§4) Scheme of a typical procedure carried out in an incubation tube of appropriate size or on a microtitre plate:
(§5) 25 μl of the substance to be tested in a suitable concentration (in vitro) or homogenization buffer (ex vivo)
(§6) 25 μl of potassium phosphate buffer 0.2M containing 0.4 units of glucose-6-phosphate dehydrogenase
(§7) 25 μl of the mitochondrial preparation (in vitro) or of the kidney or liver homogenate (ex vivo)
(§8) 25 μl of the substrate L-kynurenin containing L-^3 H-3-kynurenin (0.1 μCi)
(§9) 100 μmol, magnesium chloride 4 mmol, NADPH 200 μmol, glucose-6-phosphate 3 mmol (concentration data as final concentrations)
(§10) incubation: 10 min (in vitro) or 2 min (ex vivo) at 37° C. on a shaking machine
(§11) 150 μl of a 10% suspension of active charcoal (Norit A) in water (to remove unreacted labelled substrate)
(§12) shaking for about one minute
(§13) centrifugation for 4 min at 4000 revolutions/min
(§14) transfer of 50 μl of the charcoal-free supernatant into a counting vessel
(§15) addition of 150 μl of an appropriate scintillator to count the radioactivity of the now-tritiated water, which is a measurement of the enzyme activity which exists.
The ED50 value or, where this is not achieved, the percentage inhibition after administration of a single dosage, is a measurement of the strength of the ex vivo enzyme inhibition which is brought about by the tested substances. The ED50 value is that dosage of test substance which leads to a 50% enzyme inhibition in the investigated tissue homogenates.

The target of test [2] is T1, kynurenin-3-hydroxylase. Put plainly: in vitro kynurenin-3-hydroxylase inhibition (crude rat kidney mitochondrial preparation). The conditions noted are these: for remaining activity at 1 µM: read-out: % of control at 1 μM; for IC50: pH 7.4. The class given is biochemical.
Description: as §1, §2
The enzyme source is a crude rat kidney mitochondrial preparation which, taken up in the ratio 1:70 (weight/volume) in a potassium phosphate buffer of pH 7.4, containing EGTA, is kept in the frozen state at -80° C. until used. The enzyme test for the in vitro determination differs from the ex vivo determination described hereinafter by the use of the mentioned mitochondreal preparation in place of tissue homogenates as the enzyme source and by a pre-incubation of the enzyme with the substances to be tested at 37° C. for 15 min.
as §3, §4, §5, §6, §7
pre-incubation: 15 min at 37° C. (only in vitro)
as §8, §9, §10, §11, §12, §13, §14, §15
The IC50 value is a measurement of the strength of the in vitro enzyme inhibition which is brought about by the tested substances. It is the concentration of test substance which brings about a 50% inhibition of the enzyme activity.

The subject of the next test is Streptococcus pyogenes. Briefly: antibacterial activity, MIC by microdilution. In kind it is cell-based. The conditions noted are these: 18 h. How it is done:
(§16) Method for the determination of antibacterial activity
(§17) The minimum inhibitory concentration (MIC in μg/ml) was determined by the microdilution method in which an Isosensotest bouillon (Oxoid) was used and was complemented with 3% horse blood for Streptococcus and Listeria. The inoculation amount was approximately 5×10^5 CFU/ml. After incubation at 37° C. for 18 h the plates were evaluated at 650 nm. The MIC was determined as the lowest concentration of active substance which brought about a growth inhibition of ≥80% compared to the control.
In general terms: Broth dilution looks for growth in wells or tubes with falling amounts of substance.

The test system of a further test is Enterococcus faecalis. Put plainly: antibacterial activity, MIC by microdilution. In kind it is cell-based. How it is done: as §16, §17
A further test concerns Streptococcus pneumoniae. Briefly: antibacterial activity, MIC by microdilution. The class given is cell-based. The procedure: as §16, §17
In the next test the test system is Listeria monocytogenes. Briefly: antibacterial activity, MIC by microdilution. The settings on record: 18 h. In kind it is cell-based. The procedure: as §16, §17
For the next test, the system named is Escherichia coli. Briefly: antibacterial activity, MIC by microdilution. The class given is cell-based. The conditions noted are these: ATCC25922, strain ATCC 25922, BCB 1001/04, 37° C., 18 h. How it is done: as §16, §17
Another test concerns Pseudomonas aeruginosa. Put plainly: antibacterial activity, MIC by microdilution. In kind it is cell-based. The settings on record: 18 h. The procedure: as §16, §17
The next test deals with Staphylococcus aureus. Put plainly: antibacterial activity, MIC by microdilution. In kind it is cell-based. How it is done:
as §16, §17

Where [3] appears, read: strain B15, BCB 1003/35, 3% horse blood, 37° C., read-out: MIC.
The mark [4] stands for this setting: ATCC29212, strain ATCC 29212, BCB 1003/28, 37° C., 18 h, read-out: MIC.
The mark [5] stands for this setting: ATCC49619, strain ATCC 49619, 3% horse blood, 37° C., 18 h, read-out: MIC.
[6] abbreviates: strain BK23, BCB 1003/55, 3% horse blood, 37° C., read-out: MIC.
Where [7] appears, read: strain BA, BCB 1004/01, 37° C., read-out: MIC.
The mark [8] stands for this setting: ATCC25923, strain ATCC 25923, BCB 1003/04, 37° C., 18 h, read-out: MIC.

The structures appear in SMILES notation. Converted amounts (≈) assume the structure as drawn. Read-outs that look alike come from different tables or passages of the source.

T1 sequence (O88867 whole entry): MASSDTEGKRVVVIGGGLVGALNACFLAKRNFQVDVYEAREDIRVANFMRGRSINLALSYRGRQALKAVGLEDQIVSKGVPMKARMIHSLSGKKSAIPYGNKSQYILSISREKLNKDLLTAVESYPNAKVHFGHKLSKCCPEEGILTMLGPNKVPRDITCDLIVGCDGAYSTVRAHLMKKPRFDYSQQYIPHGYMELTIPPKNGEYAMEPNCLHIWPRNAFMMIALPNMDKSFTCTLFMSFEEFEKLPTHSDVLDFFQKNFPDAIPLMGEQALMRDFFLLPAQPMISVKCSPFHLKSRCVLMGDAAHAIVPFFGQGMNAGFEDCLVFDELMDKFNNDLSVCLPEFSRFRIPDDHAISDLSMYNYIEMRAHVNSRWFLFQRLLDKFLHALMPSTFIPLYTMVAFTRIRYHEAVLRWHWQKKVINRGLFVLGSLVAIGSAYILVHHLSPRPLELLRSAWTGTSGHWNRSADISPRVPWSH

For `O=[N+]([O-])c1cccc(-c2csc(NS(=O)(=O)c3ccc4ccccc4c3)n2)c1` [D, Naphthalene2-sulfonic acid [4(3-nitro-phenyl)-thiazol-2-yl)-amide], on kynurenin-3-hydroxylase [1], the “% of control 30 μM/kg p.o in the liver” value was found to be 20.00%. Moreover, on kynurenin-3-hydroxylase [2], the remaining activity at 1 µM is 4% and the IC50 – broadly, the concentration needed to halve the response being measured – turned out to be 30 nM.

Regarding `Cc1ccc(S(=O)(=O)Nc2nc(-c3cccc([N+](=O)[O-])c3)cs2)cc1` [Example 3, 4-Methyl-N-[4-(3-nitro-phenyl)-thiazol-2-yl]-benzene-sulfonamide], at kynurenin-3-hydroxylase [1], the “% of control 30 μM/kg p.o in the liver” value was found to be 43.00%. On kynurenin-3-hydroxylase [2], this compound displayed an IC50 of 40 nM.

Consider `COc1ccc(-c2csc(NS(=O)(=O)c3ccc(C)cc3)n2)cc1OC` [Example 6, N-[4-(3,4-Dimethoxy-phenyl)-thiazol-2-yl]-4-methyl-benzenesulfonamide], for which the “% of control 30 μM/kg p.o in the liver” value at kynurenin-3-hydroxylase [1] is 54.00%. Besides, on kynurenin-3-hydroxylase [2], the remaining activity at 1 µM was 4.58% and 65 nM corresponded to half-maximal inhibition (IC50).

On to `COc1ccc(S(=O)(=O)Nc2nc(-c3cccc([N+](=O)[O-])c3)cs2)cc1` [Example 8, 4-Methoxy-N-[4-(3-nitro-phenyl)-thiazol-2-yl]-benzenesulfonamide], for which, at kynurenin-3-hydroxylase [1], the “% of control 30 μM/kg p.o in the liver” value was 23.00% and the ED50 (as a rule, the dose at which the effect has come halfway, by size or by number of responders) came to 9 µmol/kg. Also, at kynurenin-3-hydroxylase [2], the remaining activity at 1 µM worked out at 5% and half-maximal inhibition (IC50) was put at 44 nM.

Regarding `COc1ccc(S(=O)(=O)Nc2nc(-c3cccc([N+](=O)[O-])c3)cs2)cc1OC` [Example 21, 3,4-Dimethoxy-N-[4-(3-nitro-phenyl)-thiazol-2-yl]-benzenesulfonamide], at kynurenin-3-hydroxylase [1], the “% of control 30 μM/kg p.o in the liver” value is recorded as 10.00% and the 50% effect level (ED50) was put at a dose of 4.7 µmol/kg. In addition, on kynurenin-3-hydroxylase [2], the remaining activity at 1 µM was found to be 2% and half-maximal inhibition (IC50) was put at 26 nM.

In the case of `Cc1ccc(S(=O)(=O)Nc2nc(-c3cc(C(F)(F)F)ccc3F)cs2)cc1` [Example 32, N-[4-(2-Fluoro-5-trifluoromethyl-phenyl)-thiazol-2-yl]-4-methyl-benzenesulfonamide], the ED50 at kynurenin-3-hydroxylase [1] was 17 µmol/kg. In addition, on kynurenin-3-hydroxylase [2], the remaining activity at 1 µM is 2.5% and 43 nM corresponded to half-maximal inhibition (IC50).

On kynurenin-3-hydroxylase [1], `COc1ccc(S(=O)(=O)Nc2nc(-c3cc(C(F)(F)F)ccc3F)cs2)cc1` [Example 41, N-[4-(2-fluoro-5-trifluoromethyl-phenyl)-thiazol-2-yl]-4-methoxy-benzenesulfonamide] showed an ED50 of 17 µmol/kg. In addition, on kynurenin-3-hydroxylase [2], the remaining activity at 1 µM was 18% and half-maximal inhibition (IC50) required 50 nM.

Take `Nc1ccc(S(=O)(=O)Nc2nc(-c3cc(C(F)(F)F)ccc3F)cs2)cc1` [Example 42, 4-Amino-N-[4-(2-fluoro-5-trifluoromethyl-phenyl)-thiazol-2-yl]benzenesulfonamide]: the MIC – broadly, the smallest concentration in the dilution series that meets the test's criterion for growth inhibition – with Streptococcus pyogenes (setting [3]) is 16 µg/mL (≈ 38.3 µM); in the test with Enterococcus faecalis (setting [4]) it was over 256 µg/mL; with Streptococcus pneumoniae (setting [5]), over 256 µg/mL; in the test with Listeria monocytogenes (setting [6]), over 256 µg/mL; against Escherichia coli, 256 µg/mL (≈ 613 µM); with Pseudomonas aeruginosa (setting [7]), over 256 µg/mL. Besides, the MIC with Staphylococcus aureus (setting [8]) is 16 µg/mL (≈ 38.3 µM). Further, the 50% effective dose (ED50) on kynurenin-3-hydroxylase [1] is 4.6 µmol/kg. Besides, the remaining activity at 1 µM at kynurenin-3-hydroxylase [2] was 1.4%. Besides, on kynurenin-3-hydroxylase [2], the IC50 stood at 15 nM.

For the compound `COc1ccc(S(=O)(=O)Nc2nc(-c3cc(C(F)(F)F)ccc3F)cs2)cc1OC` [Example 46, 3,4-Dimethoxy-N-[4-(2-fluoro-5-trifluoromethyl-phenyl)-thiazol-2-yl]benzenesulfonamide], the MIC with Streptococcus pyogenes (setting [3]) was 64 µg/mL (≈ 138 µM); in the test on Enterococcus faecalis (setting [4]) it was over 256 µg/mL; in the test with Streptococcus pneumoniae (setting [5]), over 256 µg/mL; in the test on Listeria monocytogenes (setting [6]) it was over 256 µg/mL; against Escherichia coli, over 256 µg/mL; in the test on Pseudomonas aeruginosa (setting [7]) it was over 256 µg/mL. Also, the MIC in the test on Staphylococcus aureus (setting [8]) was determined as 32 µg/mL (≈ 69.2 µM). The ED50 on kynurenin-3-hydroxylase [1] amounted to 5.3 µmol/kg. Besides, the remaining activity at 1 µM at kynurenin-3-hydroxylase [2] was 4.7%. Also, the IC50 on kynurenin-3-hydroxylase [2] was found to be 22 nM.

On to `Cc1cc(NS(=O)(=O)c2ccc(N)cc2)no1` [SMZ, sulfamethoxazole, reference compound], for which the MIC against Streptococcus pyogenes was 16 µg/mL (≈ 63.2 µM); against Enterococcus faecalis (ATCC29212, 18 h) it was over 256 µg/mL; against Streptococcus pneumoniae (ATCC49619, 18 h) it was over 256 µg/mL; with Listeria monocytogenes it was over 256 µg/mL; against Escherichia coli, 128 µg/mL (≈ 505 µM); in the test with Pseudomonas aeruginosa it was over 256 µg/mL. This compound registered an MIC in the test on Staphylococcus aureus (ATCC25923, 18 h) of 32 µg/mL (≈ 126 µM).

Consider `COc1cc(Cc2cnc(N)nc2N)cc(OC)c1OC` [TMP, trimethoprim, reference compound], for which the MIC was 2 µg/mL (≈ 6.89 µM) in the test on Streptococcus pyogenes (setting [3]); 0.125 µg/mL (≈ 0.431 µM) with Enterococcus faecalis (ATCC29212, 18 h); 4 µg/mL (≈ 13.8 µM) with Streptococcus pneumoniae (setting [5]); 0.25 µg/mL (≈ 0.861 µM) in the test with Listeria monocytogenes (setting [6]); 1 µg/mL (≈ 3.44 µM) in the test on Escherichia coli; 8 µg/mL (≈ 27.6 µM) in the test with Pseudomonas aeruginosa (setting [7]). In addition, the MIC with Staphylococcus aureus (setting [8]) came to 0.5 µg/mL (≈ 1.72 µM).

Source of the values: patent publication US5877193A, “Use of N-(4-aryl-thiazol-2-yl)-sulfonamides” (Hoffmann-La Roche Inc., priority 1996, dated 1999).
